Data taken from paper PMC4655872, “A quantitative assay to monitor HSV-1 ICP0 ubiquitin ligase activity in vitro” (Methods (San Diego, Calif.), 2015).

Tested on: T1, GST-ICP0.241
T1 construct: gene RL2; purified from bacterial extracts; assayed with His-tagged human E1 (UBA1) and UBE2D1
Assay: near-IR western blot of ICP0 auto-ubiquitination with methylated-ubiquitin, reconstituted E1/E2/E3
Type: biochemical, Human alphaherpesvirus 1
Details: non-specific divalent cation chelator, not a specific ligand; E1 and UBE2D1 present, 1 mM MgCl2, 5 mM ATP, pH 7.5, 37 °C, 5 min preincubation, 60 min reaction

O=C(O)CN(CCN(CC(=O)O)CC(=O)O)CC(=O)O [EDTA]
IC50: 958 µM
